The compounds below were run against human full-length MKNK1 (Homo sapiens (Human), UniProt Q9BUB5, T344D) (assay: MKNK1 kinase high ATP assay (TR-FRET)). Conditions: 2 mM ATP, 15 min preincubation with enzyme, GST-MKNK1 (T344D).
Format: biochemical
Procedure, shortened: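 GST-tagged full-length human MKNK1 (1-424, T344D, baculovirus-expressed) preincubated 15 min at 22 °C with compound, then reacted 30 min at 22 °C with 2 mM ATP and 0.06 μM biotinylated peptide (final) in HEPES pH 7.5. Phospho-substrate by TR-FRET (665/622 nm ratio), normalised to no-inhibitor and no-enzyme controls.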

Sequence of human full-length MKNK1 (Q9BUB5 other isoform, or with tags, fused parts or gaps T344D): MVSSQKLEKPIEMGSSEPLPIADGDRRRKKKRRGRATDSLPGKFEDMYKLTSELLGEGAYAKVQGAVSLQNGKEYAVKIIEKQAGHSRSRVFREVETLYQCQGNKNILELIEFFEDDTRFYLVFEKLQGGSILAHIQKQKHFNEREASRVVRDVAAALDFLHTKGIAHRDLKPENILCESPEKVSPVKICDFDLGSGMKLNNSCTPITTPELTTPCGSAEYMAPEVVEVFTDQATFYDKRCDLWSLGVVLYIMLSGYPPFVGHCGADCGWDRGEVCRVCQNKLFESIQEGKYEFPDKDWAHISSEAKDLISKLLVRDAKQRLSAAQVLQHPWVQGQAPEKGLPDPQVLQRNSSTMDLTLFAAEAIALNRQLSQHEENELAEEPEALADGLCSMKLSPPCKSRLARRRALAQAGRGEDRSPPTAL

SMILES	IC50
Cc1cc(Nc2ncnc3ccc(Cl)cc23)c(=O)n2c1C(=O)NC21CSC1 [Example 175, 6-[(6-chloroquinazolin-4-yl)amino]-8-methyl-2H-spiro[imidazo[1,5-a]pyridine-3,3′-thietane]-1,5-dione]	14.4 nM
Cc1cc(Nc2ncnc3ccc(F)cc23)c(=O)n2c1C(=O)NC21CSC1 [Example 176, 6-[(6-fluoroquinazolin-4-yl)amino]-8-methyl-2H-spiro[imidazo[1,5-a]pyridine-3,3′-thietane]-1,5-dione]	19 nM
Cc1cc(Nc2ncnc3sccc23)c(=O)n2c1C(=O)NC21CSC1 [Example 177, 8-methyl-6-[(thieno[2,3-d]pyrimidin-4-yl)amino]-2H-spiro[imidazo[1,5-a]pyridine-3,3′-thietane]-1,5-dione]	4.3 nM
Cc1cc(Nc2ncnc3[nH]ccc23)c(=O)n2c1C(=O)NC21CSC1 [Example 178, 8-methyl-6-[(7H-pyrrolo[2,3-d]pyrimidin-4-yl)amino]-2H-spiro[imidazo[1,5-a]pyridine-3,3′-thietane]-1,5-dione]	1.1 nM
Cc1cc(Nc2ncnc3cccc(C)c23)c(=O)n2c1C(=O)NC21CS(=O)(=O)C1 [Example 179, 8-methyl-6-[(5-methylquinazolin-4-yl)amino]-2H-spiro[imidazo[1,5-a]pyridine-3,3′-thietane]-1,5-dione 1′,1′-dioxide]	124 nM
Cc1cc(Nc2ncnc3ccc(Cl)cc23)c(=O)n2c1C(=O)NC21CS(=O)(=O)C1 [Example 180, 6-[(6-chloroquinazolin-4-yl)amino]-8-methyl-2H-spiro[imidazo[1,5-a]pyridine-3,3′-thietane]-1,5-dione 1′,1′-dioxide]	104 nM
Cc1cc(Nc2ncnc3cc(Cl)ccc23)c(=O)n2c1C(=O)NC21CS(=O)(=O)C1 [Example 181, 6-[(7-chloroquinazolin-4-yl)amino]-8-methyl-2H-spiro[imidazo[1,5-a]pyridine-3,3′-thietane]-1,5-dione 1′,1′-dioxide]	104 nM
Cc1cc(Nc2ncnc3ccccc23)c(=O)n2c1C(=O)NC21CS(=O)(=O)C1 [Example 182, 8-methyl-6-(quinazolin-4-ylamino)-2H-spiro[imidazo[1,5-a]pyridine-3,3′-thietane]-1,5-dione 1′,1′-dioxide]	261 nM
Cc1cc(Nc2ncnc3cccc(C)c23)c(=O)n2c1C(=O)NC21CCCC1 [Example 183, 8′-methyl-6′-[(5-methylquinazolin-4-yl)amino]-2′H-spiro[cyclopentane-1,3′-imidazo[1,5-a]pyridine]-1′,5′-dione]	13 nM
Cc1cc(Nc2ncnc3ccc(C(F)(F)F)cc23)c(=O)n2c1C(=O)NC21CCCC1 [Example 184, 8′-methyl-6′-{[6-(trifluoromethyl)quinazolin-4-yl]amino}-2′H-spiro[cyclopentane-1,3′-imidazo[1,5-a]pyridine]-1′,5′-dione]	34 nM
Cc1cc(Nc2ncnc3ccc(F)cc23)c(=O)n2c1C(=O)NC21CCCC1 [Example 185, 6′-[(6-fluoroquinazolin-4-yl)amino]-8′-methyl-2′H-spiro[cyclopentane-1,3′-imidazo[1,5-a]pyridine]-1′,5′-dione]	7.9 nM
Cc1cc(Nc2ncnc3cc(Cl)ccc23)c(=O)n2c1C(=O)NC21CCCC1 [Example 186, 6′-[(7-chloroquinazolin-4-yl)amino]-8′-methyl-2′H-spiro[cyclopentane-1,3′-imidazo[1,5-a]pyridine]-1′,5′-dione]	5.5 nM
Cc1cc(Nc2ncnc3ccccc23)c(=O)n2c1C(=O)NC21CCCC1 [Example 187, 8′-methyl-6′-[(quinazolin-4-yl)amino]-2′H-spiro[cyclopentane-1,3′-imidazo[1,5-a]pyridine]-1′,5′-dione]	7.3 nM
Cc1cc(Nc2ncnc3cccc(C)c23)c(=O)n2c1C(=O)N[C@]21CC[C@@](O)(C(F)(F)F)CC1 [Example 188, (cis)-4-hydroxy-8′-methyl-6′-[(5-methylquinazolin-4-yl)amino]-4-(trifluoromethyl)-2′H-spiro[cyclohexane-1,3′-imidazo[1,5-a]pyridine]-1′,5′-dione]	47 nM
Cc1cc(Nc2ncnc3ccc(F)cc23)c(=O)n2c1C(=O)N[C@]21CC[C@@](O)(C(F)(F)F)CC1 [Example 189, (cis)-6′-[(6-fluoroquinazolin-4-yl)amino]-4-hydroxy-8′-methyl-4-(trifluoromethyl)-2′H-spiro[cyclohexane-1,3′-imidazo[1,5-a]pyridine]-1′,5′-dione]	274 nM
Cc1cc(Nc2ncnc(N)n2)c(=O)n2c1C(=O)N[C@]21CC[C@@](O)(C(F)(F)F)CC1 [Example 190, (cis)-6′-[(4-amino-1,3,5-triazin-2-yl)amino]-4-hydroxy-8′-methyl-4-(trifluoromethyl)-2′H-spiro[cyclohexane-1,3′-imidazo[1,5-a]pyridine]-1′,5′-dione]	31.4 nM
Cc1cc(Nc2ncnc3cccc(C)c23)c(=O)n2c1C(=O)N[C@]21CC[C@@](O)(C(F)(F)C(F)(F)F)CC1 [Example 191, (cis)-4-hydroxy-8′-methyl-6′-[(5-methylquinazolin-4-yl)amino]-4-(pentafluoroethyl)-2′H-spiro[cyclohexane-1,3′-imidazo[1,5-a]pyridine]-1′,5′-dione]	67.8 nM
Cc1cc(Nc2ncnc3ccc(F)cc23)c(=O)n2c1C(=O)N[C@]21CC[C@@](O)(C(F)(F)C(F)(F)F)CC1 [Example 192, (cis)-6′-[(6-fluoroquinazolin-4-yl)amino]-4-hydroxy-8′-methyl-4-(pentafluoroethyl)-2′H-spiro[cyclohexane-1,3′-imidazo[1,5-a]pyridine]-1′,5′-dione]	281 nM
Cc1cc(Nc2ncnc3sccc23)c(=O)n2c1C(=O)N[C@]21CC[C@@](O)(C(F)(F)C(F)(F)F)CC1 [Example 193, (cis)-4-hydroxy-8′-methyl-4-(pentafluoroethyl)-6′-[(thieno[2,3-d]pyrimidin-4-yl)amino]-2′H-spiro[cyclohexane-1,3′-imidazo[1,5-a]pyridine]-1′,5′-dione]	29.8 nM
Cc1cc(Nc2ncnc3[nH]ccc23)c(=O)n2c1C(=O)N[C@]21CC[C@@](O)(C(F)(F)C(F)(F)F)CC1 [Example 194, (cis)-4-hydroxy-8′-methyl-4-(pentafluoroethyl)-6′-[(7H-pyrrolo[2,3-d]pyrimidin-4-yl)amino]-2′H-spiro[cyclohexane-1,3′-imidazo[1,5-a]pyridine]-1′,5′-dione]	12.2 nM
Cc1cc(Nc2ncnc3ccc(Cl)cc23)c(=O)n2c1C(=O)N[C@]21CC[C@@](O)(C(F)(F)C(F)(F)F)CC1 [Example 195, (cis)-6′-[(6-chloroquinazolin-4-yl)amino]-4-hydroxy-8′-methyl-4-(pentafluoroethyl)-2′H-spiro[cyclohexane-1,3′-imidazo[1,5-a]pyridine]-1′,5′-dione]	342 nM
Cc1cc(Nc2ncnc3[nH]ccc23)c(=O)n2c1C(=O)NC21CCSCC1 [Example 196, 8-methyl-6-(7H-pyrrolo[2,3-d]pyrimidin-4-ylamino)-2′,3′,5′,6′-tetrahydro-2H-spiro[imidazo[1,5-a]pyridine-3,4′-thiopyran]-1,5-dione]	0.5 nM
Cc1cc(Nc2ncnc3ccc(Cl)cc23)c(=O)n2c1C(=O)NC21CCSCC1 [Example 197, 6-[(6-chloroquinazolin-4-yl)amino]-8-methyl-2′,3′,5′,6′-tetrahydro-2H-spiro[imidazo[1,5-a]pyridine-3,4′-thiopyran]-1,5-dione]	14.9 nM
Cc1cc(Nc2ncnc3[nH]ccc23)c(=O)n2c1C(=O)NC21CCS(=O)(=O)CC1 [Example 198, 8-methyl-6-(7H-pyrrolo[2,3-d]pyrimidin-4-ylamino)-2′,3′,5′,6′-tetrahydro-2H-spiro[imidazo[1,5-a]pyridine-3,4′-thiopyran]-1,5-dione 1′,1′-dioxide]	1.1 nM
Cc1cc(Nc2ncnc3ccc(Cl)cc23)c(=O)n2c1C(=O)NC21CCS(=O)(=O)CC1 [Example 199, 6-[(6-chloroquinazolin-4-yl)amino]-8-methyl-2′,3′,5′,6′-tetrahydro-2H-spiro[imidazo[1,5-a]pyridine-3,4′-thiopyran]-1,5-dione 1′,1′-dioxide]	56.3 nM

From patent US11311520B2, “Substituted dihydroimidazopyridinediones as MKNK1 and MKNK2 inhibitors” (Bayer Pharma Aktiengesellschaft, priority 2017, dated 2022)
